According to publication PMC5363571 (Oncotarget, 2016):
pIC50: −log10 of the molar value. Structures can show the parent of a compound that is named as a salt.

Columns and labels:
[1] = biological target: T1, USP7 (Homo sapiens, UniProt Q93009); test: biochemical; set-up: Ub-AMC hydrolysis by recombinant USP7 (20 nM), 30 min pre-incubation, fluorescence read-out; settings: read-out: % Inhibition at 50 μM
[2] = biological target: T1, USP7; test: gel-based GST-UBA52 cleavage assay and Ub-AMC assay with USP7; supported by CETSA, DARTS and HA-Ub-VS competition in HO8910 lysate; type: biochemical
[3] = biological target: USP2 (Homo sapiens, UniProt O75604); test: in vitro deubiquitinase activity assay (Supplementary Figure S1); type: biochemical
USP2, sequence (O75604 whole entry): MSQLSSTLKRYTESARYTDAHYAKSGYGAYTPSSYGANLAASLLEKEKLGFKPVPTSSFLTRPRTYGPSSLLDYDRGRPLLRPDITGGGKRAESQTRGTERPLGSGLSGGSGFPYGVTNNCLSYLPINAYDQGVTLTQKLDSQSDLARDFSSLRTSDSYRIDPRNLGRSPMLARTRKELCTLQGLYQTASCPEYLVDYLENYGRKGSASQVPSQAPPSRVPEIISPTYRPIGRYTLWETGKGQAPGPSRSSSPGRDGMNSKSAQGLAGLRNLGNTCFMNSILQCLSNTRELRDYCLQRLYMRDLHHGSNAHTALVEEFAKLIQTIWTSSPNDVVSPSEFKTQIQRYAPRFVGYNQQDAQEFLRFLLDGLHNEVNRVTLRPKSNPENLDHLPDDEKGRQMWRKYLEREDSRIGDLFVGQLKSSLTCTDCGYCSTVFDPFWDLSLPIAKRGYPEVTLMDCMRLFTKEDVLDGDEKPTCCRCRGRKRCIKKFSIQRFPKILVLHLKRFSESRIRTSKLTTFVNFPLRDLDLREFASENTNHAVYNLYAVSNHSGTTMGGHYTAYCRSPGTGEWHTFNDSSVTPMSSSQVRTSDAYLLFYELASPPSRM

T1 sequence (Q93009 whole entry): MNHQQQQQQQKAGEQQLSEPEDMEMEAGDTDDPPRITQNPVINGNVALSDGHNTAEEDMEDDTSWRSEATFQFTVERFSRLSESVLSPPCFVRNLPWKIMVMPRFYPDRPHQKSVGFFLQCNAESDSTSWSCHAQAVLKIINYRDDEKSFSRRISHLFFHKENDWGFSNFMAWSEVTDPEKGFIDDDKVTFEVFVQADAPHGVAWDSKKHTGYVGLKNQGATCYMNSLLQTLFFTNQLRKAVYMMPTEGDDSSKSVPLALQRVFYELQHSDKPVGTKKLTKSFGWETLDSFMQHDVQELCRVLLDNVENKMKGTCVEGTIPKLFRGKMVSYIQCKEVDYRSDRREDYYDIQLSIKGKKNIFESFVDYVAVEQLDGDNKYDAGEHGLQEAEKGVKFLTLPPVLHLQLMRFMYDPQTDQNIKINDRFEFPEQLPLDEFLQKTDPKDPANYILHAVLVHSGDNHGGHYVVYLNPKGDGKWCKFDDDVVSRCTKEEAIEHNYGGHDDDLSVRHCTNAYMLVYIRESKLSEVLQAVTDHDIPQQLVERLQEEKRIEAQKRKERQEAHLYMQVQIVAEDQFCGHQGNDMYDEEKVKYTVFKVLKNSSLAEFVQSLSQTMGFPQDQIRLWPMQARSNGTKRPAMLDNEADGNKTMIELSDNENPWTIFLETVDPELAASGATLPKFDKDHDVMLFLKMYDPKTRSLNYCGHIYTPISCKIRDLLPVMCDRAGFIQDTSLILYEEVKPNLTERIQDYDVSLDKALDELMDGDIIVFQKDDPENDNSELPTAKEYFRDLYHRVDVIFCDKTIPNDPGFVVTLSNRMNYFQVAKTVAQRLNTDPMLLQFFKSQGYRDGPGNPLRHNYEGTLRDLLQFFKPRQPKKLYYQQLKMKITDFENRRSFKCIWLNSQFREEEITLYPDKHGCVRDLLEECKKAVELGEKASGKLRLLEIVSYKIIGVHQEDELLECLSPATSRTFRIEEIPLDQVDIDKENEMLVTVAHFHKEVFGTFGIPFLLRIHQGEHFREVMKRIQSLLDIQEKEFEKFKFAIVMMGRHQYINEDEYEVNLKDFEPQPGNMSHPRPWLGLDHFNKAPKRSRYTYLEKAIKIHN

SMILES	inhibition at 50 µM [1]	pIC50 [2]	pIC50 [3]
COC(=O)[C@]12CCC(C)(C)C[C@H]1[C@H]1C(=O)C=C3[C@@]4(C)C=C(C#N)C(=O)C(C)(C)[C@@H]4CC[C@@]3(C)[C@]1(C)CC2 [CDDO-Me]	91.5%	4.85	4.65
CN(CCOc1ccc(CC2SC(=O)NC2=O)cc1)c1ccccn1 (centres unmarked) [Rosiglitazone maleate]	< 5%		
CCCN1C[C@H](CSC)C[C@@H]2c3cccc4[nH]cc(c34)C[C@H]21 [Pergolide mesylate]	< 5%		
C[C@H](CS)C(=O)N1CCC[C@H]1C(=O)O [Captopril]	< 5%		
C#CCN(C)C(C)Cc1ccccc1 (centres unmarked) [Deprenyl]	< 5%		
C[N+](C)(C)[C@@H](Cc1c[nH]c(=S)[nH]1)C(=O)[O-] [Ergothioneine]	< 5%		
CCC(=O)O[C@]1(C(=O)CCl)[C@@H](C)C[C@H]2[C@@H]3CCC4=CC(=O)C=C[C@]4(C)[C@@]3(F)[C@@H](O)C[C@@]21C [Clobetasol propionate]	42.3%		
CC1(C)CC[C@]2(C(=O)O)CCC3=C([C@@H](CCl)C[C@@H]4[C@@]5(C)C[C@H](O)[C@H](O)[C@@](C)(C(=O)O)[C@@H]5CC[C@@]34C)[C@@H]2C1 [Senegenin]	< 5%		
Nc1ccn([C@@H]2O[C@H](CO)[C@@H](O)C2(F)F)c(=O)n1 [Gemcitabine HCl]	21.5%		
